Source: paper PMC5622171 (Nature Communications, 2017)

Columns and labels:
Assay in all cases: KINOMEscan kinase profiling
Type in all cases: binding
ABL1-phosphorylated = target: T1, ABL1-phosphorylated (Homo sapiens, UniProt P00519); details: read-out: %Inhibition by 10 μM SPA70
T1 construct: purchased DiscoverX (Ambit Biosciences) KINOMEscan
Procedure: (§1) Kinase inhibition profiling assays. The kinase inhibition profiling assay (KINOMEscan) was performed by Ambit Biosciences, now part of DiscoveryX (Fremont, CA) in accordance with the […]
(§2) published protocol20, 21. […] If the inhibition of a kinase was greater […]
(§3) dilutions) starting from 30 µM.

ACVRL1 = target: T2, ACVRL1 (Homo sapiens, UniProt P37023); details: read-out: %Inhibition by 10 μM SPA70
T2 construct: purchased DiscoverX (Ambit Biosciences) KINOMEscan
Procedure: as §1, §2, §3

ASK2 = target: T3, ASK2 (Homo sapiens, UniProt O95382); details: read-out: %Inhibition by 10 μM SPA70
T3 construct: purchased DiscoverX (Ambit Biosciences) KINOMEscan
Procedure: as §1, §2, §3

BMPR1B = target: T4, BMPR1B (Homo sapiens, UniProt O00238); details: read-out: %Inhibition by 10 μM SPA70
T4 construct: purchased DiscoverX (Ambit Biosciences) KINOMEscan
Procedure: as §1, §2, §3

BMPR2 = target: T5, BMPR2 (Homo sapiens, UniProt Q13873)
T5 construct: purchased DiscoverX (Ambit Biosciences) KINOMEscan
Procedure: as §1, §2, §3

BRSK1 = target: T6, BRSK1 (Homo sapiens, UniProt Q8TDC3); details: read-out: %Inhibition by 10 μM SPA70
T6 construct: purchased DiscoverX (Ambit Biosciences) KINOMEscan
Procedure: as §1, §2, §3

CDC2L2 = target: T7, CDC2L2 (Homo sapiens, UniProt Q9UQ88); details: read-out: %Inhibition by 10 μM SPA70
T7 construct: purchased DiscoverX (Ambit Biosciences) KINOMEscan
Procedure: as §1, §2, §3

CLK2 = target: T8, CLK2 (Homo sapiens, UniProt P49760); details: read-out: %Inhibition by 10 μM SPA70
T8 construct: purchased DiscoverX (Ambit Biosciences) KINOMEscan
Procedure: as §1, §2, §3

DDR2 = target: T9, DDR2 (Homo sapiens, UniProt Q16832); details: read-out: %Inhibition by 10 μM SPA70
T9 construct: purchased DiscoverX (Ambit Biosciences) KINOMEscan
Procedure: as §1, §2, §3

DMPK2 = target: T10, DMPK2 (Homo sapiens, UniProt Q6DT37); details: read-out: %Inhibition by 10 μM SPA70
T10 construct: purchased DiscoverX (Ambit Biosciences) KINOMEscan
Procedure: as §1, §2, §3

ERK4 = target: T11, ERK4 (Homo sapiens, UniProt P31152); details: read-out: %Inhibition by 10 μM SPA70
T11 construct: purchased DiscoverX (Ambit Biosciences) KINOMEscan
Procedure: as §1, §2, §3

FES = target: T12, FES (Homo sapiens, UniProt P07332); details: read-out: %Inhibition by 10 μM SPA70
T12 construct: purchased DiscoverX (Ambit Biosciences) KINOMEscan
Procedure: as §1, §2, §3

FGFR3 = target: T13, FGFR3 (Homo sapiens, UniProt P22607); details: read-out: %Inhibition by 10 μM SPA70
T13 construct: purchased DiscoverX (Ambit Biosciences) KINOMEscan
Procedure: as §1, §2, §3

HCK = target: T14, HCK (Homo sapiens, UniProt P08631); details: read-out: %Inhibition by 10 μM SPA70
T14 construct: purchased DiscoverX (Ambit Biosciences) KINOMEscan
Procedure: as §1, §2, §3

ICK = target: T15, ICK (Homo sapiens, UniProt Q9UPZ9); details: read-out: %Inhibition by 10 μM SPA70
T15 construct: purchased DiscoverX (Ambit Biosciences) KINOMEscan
Procedure: as §1, §2, §3

IKK-alpha = target: T16, IKK-alpha (Homo sapiens, UniProt O15111); details: read-out: %Inhibition by 10 μM SPA70
T16 construct: purchased DiscoverX (Ambit Biosciences) KINOMEscan
Procedure: as §1, §2, §3

[1] = target: T17, JAK2(JH1domain-catalytic) (Homo sapiens, UniProt O60674)
T17 construct: JAK2(JH1domain-catalytic); purchased DiscoverX (Ambit Biosciences) KINOMEscan
Procedure: as §1, §2, §3

KIT = target: T18, KIT (Homo sapiens, UniProt P10721)
T18 construct: purchased Ambit Biosciences, now part of DiscoveryX
Procedure: as §1, §2, §3

LCK = target: T19, LCK (Homo sapiens, UniProt P06239); details: read-out: %Inhibition by 10 μM SPA70
T19 construct: purchased DiscoverX (Ambit Biosciences) KINOMEscan
Procedure: as §1, §2, §3

MARK4 = target: T20, MARK4 (Homo sapiens, UniProt Q96L34)
T20 construct: purchased DiscoverX (Ambit Biosciences) KINOMEscan
Procedure: as §1, §2, §3

MINK = target: T21, MINK (Homo sapiens, UniProt Q8N4C8); details: read-out: %Inhibition by 10 μM SPA70
T21 construct: purchased DiscoverX (Ambit Biosciences) KINOMEscan
Procedure: as §1, §2, §3

MLK2 = target: T22, MLK2 (Homo sapiens, UniProt Q02779); details: read-out: %Inhibition by 10 μM SPA70
T22 construct: purchased DiscoverX (Ambit Biosciences) KINOMEscan
Procedure: as §1, §2, §3

MST2 = target: T23, MST2 (Homo sapiens, UniProt Q13188)
T23 construct: purchased Ambit Biosciences, now part of DiscoveryX
Procedure: as §1, §2, §3

MYLK2 = target: T24, MYLK2 (Homo sapiens, UniProt Q9H1R3); details: read-out: %Inhibition by 10 μM SPA70
T24 construct: purchased DiscoverX (Ambit Biosciences) KINOMEscan
Procedure: as §1, §2, §3

MYLK4 = target: T25, MYLK4 (Homo sapiens, UniProt Q86YV6); details: read-out: %Inhibition by 10 μM SPA70
T25 construct: purchased DiscoverX (Ambit Biosciences) KINOMEscan
Procedure: as §1, §2, §3

NEK7 = target: T26, NEK7 (Homo sapiens, UniProt Q8TDX7); details: read-out: %Inhibition by 10 μM SPA70
T26 construct: purchased DiscoverX (Ambit Biosciences) KINOMEscan
Procedure: as §1, §2, §3

PCTK3 = target: T27, PCTK3 (Homo sapiens, UniProt Q07002); details: read-out: %Inhibition by 10 μM SPA70
T27 construct: purchased DiscoverX (Ambit Biosciences) KINOMEscan
Procedure: as §1, §2, §3

PHKG1 = target: T28, PHKG1 (Homo sapiens, UniProt Q16816); details: read-out: %Inhibition by 10 μM SPA70
T28 construct: purchased DiscoverX (Ambit Biosciences) KINOMEscan
Procedure: as §1, §2, §3

PIK3CA = target: T29, PIK3CA (Homo sapiens, UniProt P42336); details: read-out: %Inhibition by 10 μM SPA70
T29 construct: purchased DiscoverX (Ambit Biosciences) KINOMEscan
Procedure: as §1, §2, §3

PIM3 = target: T30, PIM3 (Homo sapiens, UniProt Q86V86); details: read-out: %Inhibition by 10 μM SPA70
T30 construct: purchased DiscoverX (Ambit Biosciences) KINOMEscan
Procedure: as §1, §2, §3

PLK2 = target: T31, PLK2 (Homo sapiens, UniProt Q9NYY3)
T31 construct: purchased DiscoverX (Ambit Biosciences) KINOMEscan
Procedure: as §1, §2, §3

PLK3 = target: T32, PLK3 (Homo sapiens, UniProt Q9H4B4); details: read-out: %Inhibition by 10 μM SPA70
T32 construct: purchased DiscoverX (Ambit Biosciences) KINOMEscan
Procedure: as §1, §2, §3

PRKCD = target: T33, PRKCD (Homo sapiens, UniProt Q05655); details: read-out: %Inhibition by 10 μM SPA70
T33 construct: purchased DiscoverX (Ambit Biosciences) KINOMEscan
Procedure: as §1, §2, §3

[2] = target: T34, RSK3(Kin.Dom.2-C-terminal) (Homo sapiens, UniProt Q15349); details: read-out: %Inhibition by 10 μM SPA70
T34 construct: RSK3(Kin.Dom.2-C-terminal); purchased DiscoverX (Ambit Biosciences) KINOMEscan
Procedure: as §1, §2, §3

[3] = target: T35, RSK4(Kin.Dom.1-N-terminal) (Homo sapiens, UniProt Q9UK32)
T35 construct: RSK4(Kin.Dom.1-N-terminal); purchased DiscoverX (Ambit Biosciences) KINOMEscan
Procedure: as §1, §2, §3

S6K1 = target: T36, S6K1 (Homo sapiens, UniProt P23443); details: read-out: %Inhibition by 10 μM SPA70
T36 construct: purchased DiscoverX (Ambit Biosciences) KINOMEscan
Procedure: as §1, §2, §3

TSSK1B = target: T37, TSSK1B (Homo sapiens, UniProt Q9BXA7); details: read-out: %Inhibition by 10 μM SPA70
T37 construct: purchased DiscoverX (Ambit Biosciences) KINOMEscan
Procedure: as §1, §2, §3

TXK = target: T38, TXK (Homo sapiens, UniProt P42681); details: read-out: %Inhibition by 10 μM SPA70
T38 construct: purchased DiscoverX (Ambit Biosciences) KINOMEscan
Procedure: as §1, §2, §3

VEGFR2 = target: T39, VEGFR2 (Homo sapiens, UniProt P35968); details: read-out: %Inhibition by 10 μM SPA70
T39 construct: purchased DiscoverX (Ambit Biosciences) KINOMEscan
Procedure: as §1, §2, §3

YANK3 = target: T40, YANK3 (Homo sapiens, UniProt Q86UX6); details: read-out: %Inhibition by 10 μM SPA70
T40 construct: purchased DiscoverX (Ambit Biosciences) KINOMEscan
Procedure: as §1, §2, §3

[4] = 11-point 3-fold serial dilutions starting from 30 µM
[5] = read-out: %Inhibition by 10 μM SPA70

T23 sequence (Q13188 whole entry): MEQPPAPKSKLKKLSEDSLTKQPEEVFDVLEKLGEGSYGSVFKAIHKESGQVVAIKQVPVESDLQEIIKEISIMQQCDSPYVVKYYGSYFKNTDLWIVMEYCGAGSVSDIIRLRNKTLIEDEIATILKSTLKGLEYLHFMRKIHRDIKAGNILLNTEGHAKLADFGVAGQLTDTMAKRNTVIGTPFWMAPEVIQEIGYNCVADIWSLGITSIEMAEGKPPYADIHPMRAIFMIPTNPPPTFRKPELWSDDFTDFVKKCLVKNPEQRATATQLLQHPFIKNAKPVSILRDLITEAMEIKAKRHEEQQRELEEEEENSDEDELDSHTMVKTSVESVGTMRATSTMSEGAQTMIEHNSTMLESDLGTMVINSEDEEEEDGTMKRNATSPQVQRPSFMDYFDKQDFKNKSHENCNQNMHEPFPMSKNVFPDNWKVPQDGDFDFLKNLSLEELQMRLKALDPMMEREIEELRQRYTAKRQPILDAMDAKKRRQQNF
T18 sequence (P10721 26-976): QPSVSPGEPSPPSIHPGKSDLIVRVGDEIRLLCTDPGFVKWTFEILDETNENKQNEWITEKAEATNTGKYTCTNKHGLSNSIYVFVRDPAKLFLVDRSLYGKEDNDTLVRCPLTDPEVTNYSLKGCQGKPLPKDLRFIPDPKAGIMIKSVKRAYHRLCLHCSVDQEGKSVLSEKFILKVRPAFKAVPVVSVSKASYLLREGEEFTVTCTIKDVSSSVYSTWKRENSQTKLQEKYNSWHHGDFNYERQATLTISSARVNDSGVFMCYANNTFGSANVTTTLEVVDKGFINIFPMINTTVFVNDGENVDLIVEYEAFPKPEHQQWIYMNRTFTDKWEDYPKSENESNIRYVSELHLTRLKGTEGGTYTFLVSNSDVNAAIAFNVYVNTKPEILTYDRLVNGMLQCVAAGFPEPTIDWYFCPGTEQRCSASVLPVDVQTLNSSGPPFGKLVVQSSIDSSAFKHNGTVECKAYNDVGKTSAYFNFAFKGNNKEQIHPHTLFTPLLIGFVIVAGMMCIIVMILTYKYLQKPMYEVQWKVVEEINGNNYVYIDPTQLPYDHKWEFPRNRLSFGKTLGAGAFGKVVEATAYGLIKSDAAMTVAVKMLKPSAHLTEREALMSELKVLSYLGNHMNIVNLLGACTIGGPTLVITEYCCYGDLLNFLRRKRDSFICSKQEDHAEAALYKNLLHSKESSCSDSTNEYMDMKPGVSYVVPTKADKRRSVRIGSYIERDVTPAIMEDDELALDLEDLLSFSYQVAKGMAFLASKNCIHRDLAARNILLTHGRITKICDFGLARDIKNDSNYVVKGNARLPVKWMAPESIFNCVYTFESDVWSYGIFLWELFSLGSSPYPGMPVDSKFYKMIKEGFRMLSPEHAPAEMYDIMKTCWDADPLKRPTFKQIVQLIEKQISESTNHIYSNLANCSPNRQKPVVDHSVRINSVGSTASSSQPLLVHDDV
T39 sequence (P35968 20-1356): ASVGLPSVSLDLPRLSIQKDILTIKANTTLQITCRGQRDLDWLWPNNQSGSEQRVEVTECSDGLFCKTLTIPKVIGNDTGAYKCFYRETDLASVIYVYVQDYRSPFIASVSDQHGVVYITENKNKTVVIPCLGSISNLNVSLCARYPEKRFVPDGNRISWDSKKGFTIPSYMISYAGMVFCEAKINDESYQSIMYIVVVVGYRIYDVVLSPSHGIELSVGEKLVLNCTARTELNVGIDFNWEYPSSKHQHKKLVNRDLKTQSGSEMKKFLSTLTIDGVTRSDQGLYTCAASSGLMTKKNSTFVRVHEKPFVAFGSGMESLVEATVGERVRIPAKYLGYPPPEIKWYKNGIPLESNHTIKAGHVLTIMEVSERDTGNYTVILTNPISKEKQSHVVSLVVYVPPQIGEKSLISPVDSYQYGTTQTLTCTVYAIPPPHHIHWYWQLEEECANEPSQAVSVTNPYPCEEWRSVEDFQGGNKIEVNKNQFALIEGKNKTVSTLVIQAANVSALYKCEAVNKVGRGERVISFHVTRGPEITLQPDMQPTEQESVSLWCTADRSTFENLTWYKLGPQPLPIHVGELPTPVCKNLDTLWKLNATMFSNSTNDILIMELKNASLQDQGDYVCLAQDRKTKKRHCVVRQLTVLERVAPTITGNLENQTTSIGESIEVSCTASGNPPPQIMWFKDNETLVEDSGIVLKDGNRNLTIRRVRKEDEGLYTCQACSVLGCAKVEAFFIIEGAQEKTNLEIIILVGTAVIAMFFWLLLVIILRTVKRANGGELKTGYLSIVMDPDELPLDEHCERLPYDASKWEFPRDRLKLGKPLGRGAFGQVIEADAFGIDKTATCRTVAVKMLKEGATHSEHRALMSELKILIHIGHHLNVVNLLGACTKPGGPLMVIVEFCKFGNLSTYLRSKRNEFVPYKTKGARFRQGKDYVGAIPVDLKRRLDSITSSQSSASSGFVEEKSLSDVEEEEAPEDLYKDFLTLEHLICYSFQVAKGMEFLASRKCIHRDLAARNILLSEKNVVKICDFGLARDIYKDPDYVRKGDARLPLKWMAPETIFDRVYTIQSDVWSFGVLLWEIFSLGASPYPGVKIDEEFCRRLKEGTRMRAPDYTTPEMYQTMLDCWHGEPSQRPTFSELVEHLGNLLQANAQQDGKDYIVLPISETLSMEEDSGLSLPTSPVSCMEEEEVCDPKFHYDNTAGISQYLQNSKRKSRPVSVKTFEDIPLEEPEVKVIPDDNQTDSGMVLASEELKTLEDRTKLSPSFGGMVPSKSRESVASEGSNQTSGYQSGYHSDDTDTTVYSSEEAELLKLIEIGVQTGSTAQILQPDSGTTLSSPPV
T9 sequence (Q16832 22-855): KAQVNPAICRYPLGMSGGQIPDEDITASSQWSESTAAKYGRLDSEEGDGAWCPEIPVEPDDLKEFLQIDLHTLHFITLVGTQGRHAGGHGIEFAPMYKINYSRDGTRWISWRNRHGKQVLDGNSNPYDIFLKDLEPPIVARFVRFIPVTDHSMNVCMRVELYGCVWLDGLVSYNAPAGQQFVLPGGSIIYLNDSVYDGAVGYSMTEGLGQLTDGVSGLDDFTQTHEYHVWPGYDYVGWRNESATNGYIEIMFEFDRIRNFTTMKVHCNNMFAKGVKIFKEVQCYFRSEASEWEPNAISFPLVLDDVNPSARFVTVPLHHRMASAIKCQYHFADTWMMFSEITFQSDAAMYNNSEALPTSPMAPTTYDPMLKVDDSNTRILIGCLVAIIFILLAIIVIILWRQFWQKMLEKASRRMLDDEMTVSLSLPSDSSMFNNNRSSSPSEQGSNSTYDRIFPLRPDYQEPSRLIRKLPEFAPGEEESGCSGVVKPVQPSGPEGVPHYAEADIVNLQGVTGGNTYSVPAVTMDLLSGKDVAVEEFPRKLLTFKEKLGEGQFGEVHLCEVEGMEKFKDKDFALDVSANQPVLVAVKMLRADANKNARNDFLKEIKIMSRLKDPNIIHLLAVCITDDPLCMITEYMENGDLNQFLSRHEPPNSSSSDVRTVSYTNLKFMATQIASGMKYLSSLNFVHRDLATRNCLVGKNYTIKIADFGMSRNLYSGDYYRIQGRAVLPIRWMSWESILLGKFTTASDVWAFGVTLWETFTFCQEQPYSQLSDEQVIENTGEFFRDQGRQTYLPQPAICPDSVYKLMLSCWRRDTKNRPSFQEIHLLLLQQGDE
T1 sequence (P00519 whole entry): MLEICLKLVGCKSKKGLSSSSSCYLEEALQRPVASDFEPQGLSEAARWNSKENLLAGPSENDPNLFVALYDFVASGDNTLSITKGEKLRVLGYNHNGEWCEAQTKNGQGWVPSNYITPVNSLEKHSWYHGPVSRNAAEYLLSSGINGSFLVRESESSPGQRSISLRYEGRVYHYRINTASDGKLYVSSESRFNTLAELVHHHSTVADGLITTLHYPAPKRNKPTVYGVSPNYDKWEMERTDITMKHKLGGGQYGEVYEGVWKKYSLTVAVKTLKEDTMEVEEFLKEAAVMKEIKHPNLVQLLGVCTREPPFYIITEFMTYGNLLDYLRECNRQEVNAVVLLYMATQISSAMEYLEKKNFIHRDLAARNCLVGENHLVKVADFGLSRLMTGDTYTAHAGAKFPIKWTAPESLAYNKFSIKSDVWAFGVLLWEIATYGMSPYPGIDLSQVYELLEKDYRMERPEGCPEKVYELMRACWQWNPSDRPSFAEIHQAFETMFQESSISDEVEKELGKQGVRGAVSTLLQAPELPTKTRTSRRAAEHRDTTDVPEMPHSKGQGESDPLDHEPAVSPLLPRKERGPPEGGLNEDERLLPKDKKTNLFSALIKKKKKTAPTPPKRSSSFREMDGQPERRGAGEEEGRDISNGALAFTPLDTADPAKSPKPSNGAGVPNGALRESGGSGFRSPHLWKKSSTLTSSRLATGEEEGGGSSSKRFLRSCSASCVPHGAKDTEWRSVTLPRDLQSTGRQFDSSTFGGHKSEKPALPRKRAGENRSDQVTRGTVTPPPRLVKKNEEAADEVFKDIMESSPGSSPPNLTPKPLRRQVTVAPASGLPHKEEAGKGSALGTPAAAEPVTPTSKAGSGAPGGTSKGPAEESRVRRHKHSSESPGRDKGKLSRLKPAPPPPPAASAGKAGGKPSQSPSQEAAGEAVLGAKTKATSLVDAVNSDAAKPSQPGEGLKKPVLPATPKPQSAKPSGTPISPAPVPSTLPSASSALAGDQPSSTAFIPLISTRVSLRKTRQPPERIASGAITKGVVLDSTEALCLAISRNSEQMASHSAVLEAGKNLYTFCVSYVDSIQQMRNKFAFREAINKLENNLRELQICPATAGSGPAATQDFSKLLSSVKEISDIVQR

COc1ccc(OC)c(-n2nnc(S(=O)(=O)c3ccc(C(C)(C)C)cc3)c2C)c1 [SPA70]
inhibition at 10 µM (ABL1-phosphorylated): 19%
inhibition at 10 µM (ACVRL1): 6%
inhibition at 10 µM (ASK2): 0%
inhibition at 10 µM (BMPR1B): 0%
%Inhibition by 10 μM SPA70 (BMPR2): 10%
inhibition at 10 µM (BRSK1): 8%
inhibition at 10 µM (CDC2L2): 9%
inhibition at 10 µM (CLK2): 24%
inhibition at 10 µM (DDR2): 0%
inhibition at 10 µM (DMPK2): 3%
inhibition at 10 µM (ERK4): 0%
inhibition at 10 µM (FES): 40%
inhibition at 10 µM (FGFR3): 0%
inhibition at 10 µM (HCK): 9%
inhibition at 10 µM (ICK): 0%
inhibition at 10 µM (IKK-alpha): 10%
%Inhibition by 10 μM SPA70 [1]: 33%
Kd (KIT; [4]): 2500 nM
inhibition at 10 µM (KIT; [5]): 83%
inhibition at 10 µM (LCK): 2%
%Inhibition by 10 μM SPA70 (MARK4): 0%
inhibition at 10 µM (MINK): 0%
inhibition at 10 µM (MLK2): 0%
Kd (MST2; [4]): > 30000 nM
inhibition at 10 µM (MST2; [5]): 62%
inhibition at 10 µM (MYLK2): 0%
inhibition at 10 µM (MYLK4): 0%
inhibition at 10 µM (NEK7): 0%
inhibition at 10 µM (PCTK3): 9%
inhibition at 10 µM (PHKG1): 0%
inhibition at 10 µM (PIK3CA): 0%
inhibition at 10 µM (PIM3): 0%
%Inhibition by 10 μM SPA70 (PLK2): 9%
inhibition at 10 µM (PLK3): 33%
inhibition at 10 µM (PRKCD): 5%
inhibition at 10 µM [2]: 19%
%Inhibition by 10 μM SPA70 [3]: 4%
inhibition at 10 µM (S6K1): 13%
inhibition at 10 µM (TSSK1B): 0%
inhibition at 10 µM (TXK): 0%
inhibition at 10 µM (VEGFR2): 0%
inhibition at 10 µM (YANK3): 0%
